Legend:
[1] = system: secreted APP; test: ELISA for secreted APP in SHSY5Y cells; type: cell-based, human; conditions: 16 hours
[2] = system: SH-SY-5Y Cells; test: MTS toxicity assay in SHSY5Y cells; type: cell-based, human

Compound | APP Secretion by SH-SY-5Y Cells ([1]; Dose 0.08 uM) [% vehicle control] | APP Secretion by SH-SY-5Y Cells ([1]; Dose 0.25 uM) [% vehicle control] | APP Secretion by SH-SY-5Y Cells ([1]; Dose 0.74 uM) [% vehicle control] | APP Secretion by SH-SY-5Y Cells ([1]; Dose 2 uM) [% vehicle control] | APP Secretion by SH-SY-5Y Cells ([1]; Dose 6 uM) [% vehicle control] | APP Secretion by SH-SY-5Y Cells ([1]; Dose 20 uM) [% vehicle control] | APP Toxicity SH-SY-5Y Cells (MTS assay) ([2]; Dose 0.08 uM) [% vehicle control] | APP Toxicity SH-SY-5Y Cells (MTS assay) ([2]; Dose 0.25 uM) [% vehicle control] | APP Toxicity SH-SY-5Y Cells (MTS assay) ([2]; Dose 0.74 uM) [% vehicle control] | APP Toxicity SH-SY-5Y Cells (MTS assay) ([2]; Dose 2 uM) [% vehicle control] | APP Toxicity SH-SY-5Y Cells (MTS assay) ([2]; Dose 6 uM) [% vehicle control] | APP Toxicity SH-SY-5Y Cells (MTS assay) ([2]; Dose 20 uM) [% vehicle control] | APP Secretion by SH-SY-5Y Cells ([1]; Dose 2 uM, listed as 9294) [% vehicle control] | APP Secretion by SH-SY-5Y Cells ([1]; Dose 6 uM, listed as 9294) [% vehicle control] | APP Secretion by SH-SY-5Y Cells ([1]; Dose 20 uM, listed as 9294) [% vehicle control] | APP Toxicity SH-SY-5Y Cells (MTS assay) ([2]; Dose 2 uM, listed as 9294) [% vehicle control] | APP Toxicity SH-SY-5Y Cells (MTS assay) ([2]; Dose 6 uM, listed as 9294) [% vehicle control] | APP Toxicity SH-SY-5Y Cells (MTS assay) ([2]; Dose 20 uM, listed as 9294) [% vehicle control]
CC(Br)C(=O)N(C)c1ccc(O)cc1 (stereo not drawn) [MES 9291, Propionanilde] | 98.2 | 99.5 | 99.7 | 100.1 | 96.9 | 67.8 | 99.1 | 100.5 | 97.1 | 102.4 | 99.87 | 99 |  |  |  |  |  | 
CC1C(=O)N(C)c2ccc(O)cc21 (stereo not drawn) [MES 9292, 1,3-Dimethyl-5-hydroxyoxindole] |  |  |  | 106.15 | 99.55 | 100.15 |  |  |  | 102.85 | 103.75 | 104.9 |  |  |  |  |  | 
COc1ccc2c(c1)C(C)C(=O)N2C (stereo not drawn) [MES 9293] |  |  |  | 97.8 | 102.75 | 94.45 |  |  |  | 100.8 | 99.85 | 101.95 |  |  |  |  |  | 
COc1ccc2c(c1)[C@@]1(C)CCNC1N2C (stereo partly drawn) [MES 9294] |  |  |  |  |  |  |  |  |  |  |  |  | 105.25 | 90 | 111 | 99.9 | 98.3 | 100.2
COc1ccc2c(c1)C1(C)CCSC1N2C (stereo not drawn) [MES 9301] |  |  |  | 108.45 | 106.1 | 111.15 |  |  |  | 99.15 | 97.35 | 95.9 |  |  |  |  |  | 
COc1ccc2c(c1)[C@]1(C)CCSC1N2C (stereo partly drawn) [MES 9302] |  |  |  | 100.35 | 105.4 | 105.8 |  |  |  | 100.7 | 101.2 | 99.05 |  |  |  |  |  | 
COc1ccc2c(c1)C1(c3ccccc3)CCNC1N2C (stereo not drawn) [MES 9305] |  |  |  | 106.2 | 102.4 | 102.2 |  |  |  | 95.8 | 96.73 | 94.83 |  |  |  |  |  | 
CC(Br)C(=O)N(Cc1ccccc1)c1ccc(O)cc1 (stereo not drawn) [MES 9306] |  |  |  | 110.75 | 114.55 | 124.8 |  |  |  | 102.3 | 101.45 | 106 |  |  |  |  |  | 
COC(=O)CC1(C)C(=O)N(C)c2ccc(OC)cc21 (stereo not drawn) [MES 9309] |  |  |  | 100 | 106.4 | 100.9 |  |  |  | 100.85 | 98.6 | 101.1 |  |  |  |  |  | 

— patent US8691864B2, “Agents useful for reducing amyloid precursor protein and treating dementia and methods of use thereof” (priority 2000, dated 2014)
